Data on one molecule can be found in US20130045943A1, “A3AR AGONISTS FOR THE TREATMENT OF UVEITIS” (THE GOVERNMENT OF THE UNITED STATES OF AMERICA AS …, priority 2010, published 2013).

The nature of data set [1]: Water solubility. The data set is classed as physicochemical.
Data set [2] has as its system experimental acute uveitis (EAU) induced with IRBP in C57BL/6j mice. Put plainly: Experimental autoimmune uveitis (EAU) in mice, disease intensity scored by funduscopy. The following applies: for inhibition of fundoscopy score: oral IB-MECA 10 μg/kg twice daily from day 7. The data set is classed as in vivo.
Data set [3] concerns antigen-specific (IRBP) responses of T cells. Kind of data set: In vitro antigen-driven proliferation assay (3[H]-thymidine incorporation) of drain lymph node cells from treated mice. The following applies: lymph node cells from treated animals, cultured 48 hours with IRBP 0.2-20 μg/ml. The data set is classed as cell-based, C57BL/6j mice. The protocol:
To explore the immunological effects of IB-MECA on the antigen-specific responses of T cells, an in vitro antigen-driven proliferation assay was performed. Drain lymph nodes (inguinal and iliac) were collected from the IRBP immunized mice, both from the vehicle and from the IB-MECA treated groups. The cells were cultured for 48 hours in the presence of graded doses of IRBP (0.2-20 μg/ml) and proliferation was evaluated by an ^3[H]-thymidine incorporation assay.

In data set [4] the test system is experimental acute uveitis (EAU) induced with IRBP in C57BL/6j mice. Kind of data set: EAU in mice, histopathological grading of enucleated eyes. The data set is classed as in vivo.

Entries after “also recorded” stand apart in the source; their conditions may differ.

`CNC(=O)[C@H]1OC(n2cnc3c(NCc4cccc(I)c4)ncnc32)[C@H](O)[C@@H]1O` (stereo partly drawn) [IB-MECA, 1-Deoxy-1-[6-[[(3-iodophenyl)methyl]amino]-9H-purine-9-yl]-N-methyl-D-ribofuranuronamide]: the water solubility entry in data set [1] was “not water soluble”. The results for the “inhibition of fundoscopy score” value in data set [2] (day 16 after immunization) and in data set [2] (day 20 after immunization) were 91% and 49.4%, respectively. The “development of EAU (FIG. 1)” value in data set [2] (result in words) was “inhibited”. Moreover, the “T cell response to IRBP (proliferation)” value in data set [3] is recorded as “moderate response; also recorded: ameliorates”. Further, the “histopathological score of EAU (FIG. 2)” value in data set [4] (result in words) was “decreased”. Besides, the “inhibition of pathological score in comparison to the vehicle-treated group” value in data set [4] (upon study termination, oral IB-MECA 10 μg/kg twice daily from day 7) is listed as 53%.
